# Measured values as given in the supplement of paper PMC10307832.
# Legend:
# Experiment in all cases: relative viability (nuclei count vs DMSO), 5 days (fraction); higher = more cells survive
# [1] = compound: CN1C=C(C2=CC=CC=C21)/C=C\3/C4=C(C=CC=N4)NC3=O + C[C@@H](Oc1cc(-c2cnn(C3CCNCC3)c2)cnc1N)c1c(Cl)ccc(F)c1Cl [Crizotinib] (partner 1 µM)
# Outline: (§1)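 Relative viability was taken as the ratio of nuclei in treated wells to nuclei in vehicle wells. Lung cancer cell lines in 1536-well plates received compounds by pin tool one day after seeding, either one drug alone or a fixed anchor-drug dose plus five library-drug doses (not always all listed) in √10 steps. Nuclei were counted on 4× images after 5 days of treatment, and values are medians of duplicate plates.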
# Trametinib + Crizotinib = compound: CC(=O)Nc1cccc(-n2c(=O)n(C3CC3)c(=O)c3c(Nc4ccc(I)cc4F)n(C)c(=O)c(C)c32)c1 [Trametinib] + C[C@@H](Oc1cc(-c2cnn(C3CCNCC3)c2)cnc1N)c1c(Cl)ccc(F)c1Cl [Crizotinib] (partner 1 µM)
# Outline: as §1
# [2] = compound: CN1C=C(C2=CC=CC=C21)/C=C\3/C4=C(C=CC=N4)NC3=O + Nc1nc2[nH]cc(CCc3ccc(C(=O)N[C@@H](CCC(=O)O)C(=O)O)cc3)c2c(=O)[nH]1 [Pemetrexed] (partner 0.2 µM)
# Outline: as §1
# Trametinib + Linsitinib = compound: CC(=O)Nc1cccc(-n2c(=O)n(C3CC3)c(=O)c3c(Nc4ccc(I)cc4F)n(C)c(=O)c(C)c32)c1 [Trametinib] + C[C@]1(O)C[C@@H](c2nc(-c3ccc4ccc(-c5ccccc5)nc4c3)c3c(N)nccn32)C1 [Linsitinib] (partner 1 µM)
# Outline: as §1
Cell Line,relative viability ([1]; first compound 0.02 µM),relative viability ([1]; first compound 0.06325 µM),relative viability ([1]; first compound 0.2 µM),relative viability ([1]; first compound 0.6325 µM),relative viability ([1]; first compound 2 µM),relative viability (Trametinib + Crizotinib; first compound 0.0025 µM),relative viability (Trametinib + Crizotinib; first compound 0.007906 µM),relative viability (Trametinib + Crizotinib; first compound 0.025 µM),relative viability (Trametinib + Crizotinib; first compound 0.07906 µM),relative viability (Trametinib + Crizotinib; first compound 0.25 µM),relative viability ([2]; first compound 0.02 µM),relative viability ([2]; first compound 0.06325 µM),relative viability ([2]; first compound 0.2 µM),relative viability ([2]; first compound 0.6325 µM),relative viability ([2]; first compound 2 µM),relative viability (Trametinib + Linsitinib; first compound 0.0025 µM),relative viability (Trametinib + Linsitinib; first compound 0.007906 µM),relative viability (Trametinib + Linsitinib; first compound 0.025 µM),relative viability (Trametinib + Linsitinib; first compound 0.07906 µM),relative viability (Trametinib + Linsitinib; first compound 0.25 µM)
NCI-H358,0.56,0.497,0.606,0.601,0.633,0.526,0.349,0.276,0.243,0.194,0.172,0.15,0.167,0.172,0.164,0.587,0.438,0.399,0.332,0.28
NCI-H1915,0.767,0.873,0.87,1.07,0.973,0.872,0.756,0.568,0.333,0.231,0.463,0.41,0.579,0.487,0.504,1.14,1.05,0.671,0.674,0.278
201T,1.01,1.04,1.05,1.12,1.01,1.05,1.01,0.859,0.872,0.799,0.31,0.317,0.365,0.342,0.358,1.01,1.02,0.863,0.959,0.778
NCI-H1437,0.878,0.898,0.989,0.915,1.14,0.952,0.883,0.572,0.373,0.472,0.305,0.294,0.344,0.343,0.335,0.996,0.412,0.294,0.209,0.176
A-427,0.924,0.775,–,1,1.16,0.924,0.757,0.659,0.658,0.502,0.981,0.973,–,0.94,0.983,1.11,1.14,0.631,0.825,0.432
HCC-366,0.351,0.387,0.579,0.472,0.398,0.446,0.425,0.34,0.246,0.0629,0.148,0.142,0.196,0.155,0.133,0.538,0.288,0.196,0.133,0.116
BEN,0.896,0.807,0.761,0.779,0.956,0.794,0.825,–,0.717,0.81,0.715,0.847,0.613,0.731,0.734,0.81,0.762,–,0.687,0.882
NCI-H2347,0.588,0.802,0.607,0.694,0.674,0.698,0.476,0.252,0.464,0.433,0.445,0.454,0.444,0.423,0.426,0.93,0.653,0.404,0.431,0.445
LCLC-103H,1.11,1.13,1.05,1.13,1.07,0.938,1.07,0.799,0.756,0.76,0.455,0.455,0.483,0.482,0.462,0.968,0.897,0.746,0.904,0.933
NCI-H650,0.586,0.601,–,0.771,0.797,0.787,0.736,0.672,0.668,0.339,0.934,0.875,–,0.805,0.918,1.08,0.93,0.861,0.787,0.456
NCI-H1975,0.749,0.939,0.915,0.817,0.796,0.965,0.937,0.757,0.499,0.381,0.265,0.28,0.3,0.283,0.264,0.93,0.897,0.603,0.384,0.38
NCI-H2126,0.994,1,1.06,1.03,1.02,1.01,0.959,0.788,0.832,0.749,0.694,0.62,0.674,0.669,0.594,0.617,0.613,0.422,0.546,0.454
NCI-H2087,0.96,0.701,1.1,0.889,0.868,0.888,0.667,0.495,0.33,0.289,0.671,0.62,0.622,0.631,0.656,0.718,0.416,0.377,0.311,0.315
